In patent US20260284186A1, “[…] MODIFIERS FOR THE TREATMENT OF SUBJECTS WITH UNDER[…] SYSTEMS AND COMPOSITIONS THEREOF” (priority 2023, published 2026):

Legend:
[1] = test system: SARS-COV-2 RBD; test: Anti-RBD IgG response, CDA dose escalation, Example 13; assay type: in vivo, Balb/c mice
[2] = test system: RBD-ACE2 interaction; test: ACE2-binding inhibitory activity of the induced antibodies; assay type: in vivo, Balb/c mice; conditions: sera after three administrations; FIG. 3
Source text: FIG. 3. Inhibitory activity of the antibody response induced by the groups with the strongest anti-RBD response after three administrations, following the immunization schedule described in example 1. A) G2; B) G4; C) G6; D) G11; E) G12 and F) Monoclonal antibody (McAb) CBSSRBD-S.8 used as standard curve to plot the results in the five ELISA plates.
Thus, we studied the antibody response effect on the ACE2-binding inhibitory activity.
The resulting antibody response is capable of inhibiting the binding of the antigen to their cellular receptor ACE2, a process that resembles the interaction of the virus to their cellular receptor. This inhibitory effect is essential to ensure the strong antiviral effect of the immune response against an infectious agent/virus through the specific neutralizing activity. […] This functional aspect of the antibody response is linked to the increased quality of the same response in terms of avidity. […] The quality of the experiment was ensured with the use of a McAb in the standard curve of the five plates used in the study and the reproducibility of the inhibitory effect (FIG. 3F) as well as with the assessment of the ACE2 inhibitory binding in a group that received the placebo of CDA but no antigen ([…]).

[3] = test system: multiple viruses; test: In vitro stimulation of cells with CDA or CDA/HBcAg, IFN induction and virus elimination, Example 14; assay type: cell-based
[4] = test system: SARS and IAV; assay type: in vivo; conditions: BRM without antigen

Q: Nc1ncnc2c1ncn2[C@@H]1O[C@@H]2COP(=O)(O)O[C@H]3[C@@H](O)[C@H](n4cnc5c(N)ncnc54)O[C@@H]3COP(=O)(O)O[C@H]2[C@H]1O [CDA, cyclic bis(3′-5′) diadenylic acid] was tested. Which “Dose of CDA inducing the strongest immune response” value ([1]; RBD at 50 μg dose (1 mg/mL)) did it give?
A: Its value is 5 µg.

Q: What about the “Optimal dose of CDA per mice” value ([1]; with 12.5 μg of RBD) of the same molecule?
A: Its value is 10 µg.

Q: What about the “Inhibitory effect on RBD-ACE2 binding” value [2] of the same molecule?
A: The value was “strong inhibitory effect”.

Q: What about the “Stimulatory effects and type I / type 2 IFN induction” value ([3]; in vitro stimulation of cells, synergy in vivo) of the same molecule?
A: The value was “enhancement of different channels of stimulatory effects”.

Q: What about the “Elimination of viruses in vitro” value ([3]; multiple viruses) of the same molecule?
A: The value was “in vitro elimination of multiple viruses”.

Q: What about the “Antibody response against the viral antigens after in vivo treatment” value [4] of the same molecule?
A: Its value is “high avidity antibody response”.

Q: What about the “Viral titers of SARS and IAV” value ([4]; acutely infected subjects and in vitro infected & treated cells, before or after infection) of the same molecule?
A: Its value is “quantitative reduction of the viral titers”.
